Assay results from article PMC12040169 (PLOS Biology, 2025).

experiment: in vitro; conditions: human, hela cells, % viability

SMILES	viability at 28.5 h, 10 µM [%]
CCNC(=O)CNc1cc(C#N)ccc1C(F)(F)F [CBK306432]	86.5
C=Cn1ncc(CN(CCCN(C)C)Cc2ccco2)c1C [CBK283228]	96.8
O=[N+]([O-])c1ccc(C(O)CNC(=S)Nc2ccccc2)cc1 (stereo not shown) [CBK261086]	99.8
CN1CCN(C(=O)C2CCN(S(=O)(=O)c3ccc4ccccc4c3)CC2)CC1 [CBK269504]	88.1
CN1C2CCC1CC(OC(=O)CCN1CCCC1)C2 (stereo not shown) [CBK261466]	95.3
O=C1NC2(CCCCC2)C(=O)N1c1cccc(Cl)c1 [CBK287969]	94.3
CN(C)CCN(C)c1cncc(-c2cccc(C(F)(F)F)c2)n1 [CBK065584]	115
c1ccc2c(c1)CCN(Cc1nc3ccccc3[nH]1)C2 [CBK126396]	92.2
COCCNc1nc2c(c(N3CCCC(C#N)C3)n1)CCNCC2 (stereo not shown) [CBK307412]	87.2
CCOC(=O)c1cc(Cl)cnc1C1CCN(C(=O)C2CC2)CC1 [CBK284810]	94.5
C=CCN1C(=O)C2(CC(=O)N(Cc3ccc(OC)c(OC)c3)C2=O)c2ccccc21 (stereo not shown) [CBK075148]	114
Cc1cc(C)nc(Nc2ccc(C3CCCN(C(=O)c4c(C)oc5c4CCCC5)C3)nc2)n1 (stereo not shown) [CBK285988]	109
O=C(NC1CC2CCC(C1)N2Cc1ccccc1)c1ccc(Cl)cc1 (stereo not shown) [CBK120192]	88.4
CCN(CC)CCN1CCN(c2cc(-c3ccc(OC(F)(F)F)cc3)ncn2)CC1 [CBK037756]	96.3
Cc1csc2ncc(C(=O)Nc3ccc(OC(F)(F)F)cc3)c(=O)n12 [CBK287457]	108
CCc1c(C)nc2c(N3CCOC3=O)cccc2c1SCCC(=O)O [CBK159595T]	91.7
COc1ccc(C2C(C(C)=O)=C(O)C(=O)N2CCCC(=O)O)cc1 (stereo not shown) [CBK263774]	100
CC(O)CN(Cc1ccc(-n2cnc3ccccc32)cc1)Cc1ccc2c(c1)OCO2 (stereo not shown) [CBK286475]	101
CCN(CC)C(=O)c1sccc1NS(=O)(=O)c1cc(Br)c(Cl)s1 [CBK004599]	98.3
CS(=O)(=O)N1CCc2cc(-c3cn4ccccc4n3)ccc21 [CBK285190]	85.6
CCc1c(C)sc(NC(=O)CSc2nnnn2C)c1C(=O)OC [CBK270312]	90.7
COc1ccc(C(CNCC(O)COc2cccc3c2CCCC3)c2ccccc2)cc1 (stereo not shown) [CBK028144]	105

SMILES	viability at 28.5 h, 10 µM [%]
Cc1cc(CC(=O)Nc2ccc3[nH]ccc3c2)on1 [CBK159690]	103
CCCCCC1=NN(C(=O)OCC)C(O)(C(F)(F)F)C1 (stereo not shown) [CBK027739]	94.9
CC(=O)C(Sc1nc(N2CCOCC2)nc(N2CCOCC2)n1)C(=O)Nc1ccccc1 (stereo not shown) [CBK266643]	93
COc1ccc([C@@]23CC[C@@H](CNC(=O)c4ccc(C(F)(F)F)cc4)C[C@@H]2N(C)CC3)cc1OC [CBK042195]	107
COCCNC(=O)c1cc(-c2ccc(C)s2)nc2c1cnn2C(C)C [CBK305051]	105
CC(CNS(=O)(=O)c1ccc(N2CCCC2=O)cc1)Cn1cccn1 (stereo not shown) [CBK304656]	87.7
c1ccc2[nH]c(SCCN3CCOCC3)nc2c1 [CBK262593]	89
CN(C)CC1CN(C(=O)Cc2ccccc2F)Cc2ccccc2O1 (stereo not shown) [CBK285327]	90.4
CCCC(=O)c1ccc(S(=O)(=O)N2CCN(Cc3ccc(O)c(F)c3)CC2)cc1 [CBK062959]	111
CC1=NNC(=S)NC(C)(C)C1 [CBK021597]	120
COc1ccccc1-c1nccnc1OCCn1cnc2c1c(=O)n(C)c(=O)n2C [CBK106816]	109
CCN(CC)C(=O)CN1CCC(Oc2nccnc2OC2CCCCC2)CC1 [CBK082866T]	87
O=C1CCCN1CCCNC(=O)N1CCN(CCc2ccccc2)CC1 [CBK158932]	91
Nc1ncc(-c2cccc(C(F)(F)F)c2)c2cccnc12 [CBK067590]	89.2
CCOC(=O)c1c(NC(=O)Cn2nc(C(F)(F)F)c(Cl)c2C)sc2c1CCCC2 [CBK263019]	98.5
CCC(CN1CCOCC1)NC(=O)Cc1coc2cc(C)cc(C)c12 (stereo not shown) [CBK282812]	103
COc1ccc(CN2CCCN(C(=O)c3ccnc(Cl)c3)CC2)cc1 [CBK305364]	85.4
COC[C@H](C)Nc1ccc(C(=O)N2CCC(N3CCOCC3)CC2)cn1 [CBK306917]	84.8
Cc1cc2c([nH]c3ccccc32)c(C)n1 [CBK262689]	104
Cc1nn(CC(=O)N(C)C2CCCCC2)c(=O)c2cc3occc3n12 [CBK283653]	92.4
Cc1ccc(N(CC(=O)Nc2cccc3cccnc23)S(=O)(=O)c2ccc(C)cc2)cc1 [CBK262201]	104
CC(C)(CNC(=O)Cn1cc(C(=O)NC2CCCCC2)ccc1=O)c1cccc(F)c1 [CBK286110]	88.4

SMILES	viability at 28.5 h, 10 µM [%]
CCOC(=O)Nc1ccc2c(c1)N(C(=O)CN1CCOCC1)c1ccccc1CC2 [CBK261286C]	101
CN1CCCc2ccc(S(=O)(=O)Nc3ccc4nncn4c3)cc21 [CBK306435]	98.6
O=C(O)C1CCN(C(=O)NCc2ccc(F)cc2)CC1 [CBK156070]	117
COc1cc(C(=O)Nc2ccccc2C(=O)N2CCN(C)CC2)cc(OC)c1OC [CBK269803]	88.5
O=S(=O)(NCC1COc2ccccc2O1)c1cc(Cl)sc1Cl (stereo not shown) [CBK057394]	85.4
COc1ccc(N2CC(C(=O)Nc3ccc(C(=O)O)cc3)CC2=O)cc1 (stereo not shown) [CBK268782]	88
O=C(CCc1nc(=O)c2c3c(sc2[nH]1)CCC3)N1CCCCCC1 [CBK306388]	90.4
O=C(C1CC1)N1CCC[C@H]1Cn1nc(-c2ccc(F)cc2)ccc1=O [CBK284252]	79.8
COc1ccc(Nc2cc(Cl)ccc2C(=O)O)cn1 [CBK022801]	91.5
CC1CN(C(=O)c2ccccc2)CC(C)N1CCCCc1ccc(F)cc1 (stereo not shown) [CBK025019C]	97.9
C[C@@H]1CN(C(=O)c2nccc3ccccc23)C[C@H](C)O1 [CBK200233]	92.8
CC(CCc1ccccc1)N1CCN(S(=O)(=O)c2ccc3ccccc3c2)CC1 (stereo not shown) [CBK264240]	104
CC(=O)Nc1cccc(CN(CCCCO)C2CC2)c1 [CBK304806]	91.6
COc1ccc2nc(Nc3nc(=O)cc(CSc4nc5ccccc5s4)[nH]3)nc(C)c2c1 [CBK264854]	110
CC(=O)NCCN1CC[C@H]2CN(C(=O)COc3ccccc3)CC[C@H]2CC1=O [CBK288783]	84.6
Cc1c(Cc2ccccc2)c(N2CCN(C3c4ccccc4-c4ccccc43)CC2)n2c(nc3ccccc32)c1C#N [CBK263124]	111
O=C(Cn1c(C(F)(F)F)nc2ccccc21)NCCN1CCOCC1 [CBK267339]	100
COc1ccc(NC(=O)CN2CCN(S(=O)(=O)N(C)C)CC2)cc1 [CBK267465]	93.3
Cc1cccc(N2CCN(CC(=O)Nc3cc(Cl)ccc3C#N)CC2)c1 [CBK306055]	109
COc1cccc(NC(=O)N2CCN3C(=O)[C@H](CC4CCCCC4)NC(=O)[C@H]3C2)c1 [CBK289615]	117
Cc1ncsc1CCN(C)C(C)C(=O)Nc1nccs1 (stereo not shown) [CBK307709]	109
COc1ccc(C2(C(=O)NCCN3CCCC3)CC2)cc1 [CBK149824]	95.6

SMILES	viability at 28.5 h, 10 µM [%]
O=C(c1cc(F)c(F)cc1F)N1CCC2(CCN(Cc3cccc(C(F)(F)F)c3)C2)C1 (stereo not shown) [CBK132130]	102
CC(C)[C@H](CO)Nc1nc(-c2ccc(F)c(Cl)c2)cnc1N [CBK063949]	109
Cc1ccc(C(=O)N2CC=C(c3c[nH]c4ncccc34)CC2)cn1 [CBK297889]	103
Cc1ncc(C(O)c2ccc(Cl)cc2)c2c1OC(C)(C)OC2 (stereo not shown) [CBK010749]	111
O=c1[nH]c(=O)c2cc(S(=O)(=O)Nc3ccccc3Cc3ccccc3)ccc2[nH]1 [CBK286377]	94.3
Cc1c(NS(=O)(=O)c2cc(C(=O)O)c(Cl)cc2Cl)c(=O)n(-c2ccccc2)n1C [CBK296123]	90.3
Nc1cccc2c1C(=O)N(c1ccccc1C(=O)O)C2=O [CBK287220]	94
c1ccc2c(c1)CCC[C@H]2Oc1cncc(N2CCNCC2)n1 [CBK172388G]	90.7
COc1ccc([C@@]23CCN(C(=O)Nc4ccc(F)c(F)c4F)C[C@@H]2CN(C)C3)cc1OC [CBK074305T]	106
CCN(CC)C(=O)c1sc2ncccc2c1NS(=O)(=O)c1c(C)noc1C [CBK050617]	115
CCOC(=O)C1=C(C)NC(=S)NC1c1ccc(O)c(OCC)c1[N+](=O)[O-] (stereo not shown) [CBK265624]	102
CCC(c1ccc2ccccc2c1)c1c(O)c2ccccc2oc1=O (stereo not shown) [CBK016681]	96.7
O=[N+]([O-])c1ccc(CN2CCN(c3nccnc3OCC3COc4ccccc4O3)CC2)cc1 (stereo not shown) [CBK082791T]	107
O=C1NCCN1c1cccc(Cl)c1 [CBK016915]	88.3
Cn1cc(Nc2nc(-c3ccc(CCNS(C)(=O)=O)cc3)cs2)cn1 [CBK305065]	109
Cc1ccc(NC(=O)c2cnccn2)c(C)n1 [CBK200291]	97.2
Cn1c(O)c(CCNc2cc([C@H]3C[C@@H](O)C3)nc(N)n2)cnc1=O [CBK306956]	104
Cc1cnc(CNC(=O)N2CCN(Cc3ccccc3)CC2)cn1 [CBK155627]	99.3
CCc1nc2ccc(C(=O)N(C)CCN(C)C)cn2c1N(CC)C(=O)NCCc1ccccc1 [CBK147036]	96.4
COCCCN(Cc1ccccn1)Cc1cccc(F)c1F [CBK282947]	84.5
O=C(NCC(O)c1ccccc1)c1ccc(Cl)c(S(=O)(=O)N2CCCCC2)c1 (stereo not shown) [CBK269197]	81

same assay, conditions: human, hela cells, % viability, bulk resorufin, single well

SMILES	viability at 28.5 h, 10 µM [%]
Cc1nc2ccc(NC(=O)Nc3cccc(-c4ccc5c(c4)COC4(CCNCC4)O5)c3)cc2o1 [CBK113206]	101
